Measured values reported in patent publication US10703756B2, “Pyrrolo[2,3-D]pyrimidinyl, pyrrolo[2,3-B]pyrazinyl, pyrrolo[2,3-B]pyridinyl acrylamides and epoxides thereof” (Pfizer Inc., priority 2015, dated 2020).
pIC50: −log10 of the molar value.

Tests used:
JAK3 enzyme [1] = biological target: T1, JAK3 enzyme (Homo sapiens, UniProt P52333); test: JAK Caliper Enzyme Assay at 1 mM ATP; assay type: biochemical
T1 sequence (P52333 1-1124): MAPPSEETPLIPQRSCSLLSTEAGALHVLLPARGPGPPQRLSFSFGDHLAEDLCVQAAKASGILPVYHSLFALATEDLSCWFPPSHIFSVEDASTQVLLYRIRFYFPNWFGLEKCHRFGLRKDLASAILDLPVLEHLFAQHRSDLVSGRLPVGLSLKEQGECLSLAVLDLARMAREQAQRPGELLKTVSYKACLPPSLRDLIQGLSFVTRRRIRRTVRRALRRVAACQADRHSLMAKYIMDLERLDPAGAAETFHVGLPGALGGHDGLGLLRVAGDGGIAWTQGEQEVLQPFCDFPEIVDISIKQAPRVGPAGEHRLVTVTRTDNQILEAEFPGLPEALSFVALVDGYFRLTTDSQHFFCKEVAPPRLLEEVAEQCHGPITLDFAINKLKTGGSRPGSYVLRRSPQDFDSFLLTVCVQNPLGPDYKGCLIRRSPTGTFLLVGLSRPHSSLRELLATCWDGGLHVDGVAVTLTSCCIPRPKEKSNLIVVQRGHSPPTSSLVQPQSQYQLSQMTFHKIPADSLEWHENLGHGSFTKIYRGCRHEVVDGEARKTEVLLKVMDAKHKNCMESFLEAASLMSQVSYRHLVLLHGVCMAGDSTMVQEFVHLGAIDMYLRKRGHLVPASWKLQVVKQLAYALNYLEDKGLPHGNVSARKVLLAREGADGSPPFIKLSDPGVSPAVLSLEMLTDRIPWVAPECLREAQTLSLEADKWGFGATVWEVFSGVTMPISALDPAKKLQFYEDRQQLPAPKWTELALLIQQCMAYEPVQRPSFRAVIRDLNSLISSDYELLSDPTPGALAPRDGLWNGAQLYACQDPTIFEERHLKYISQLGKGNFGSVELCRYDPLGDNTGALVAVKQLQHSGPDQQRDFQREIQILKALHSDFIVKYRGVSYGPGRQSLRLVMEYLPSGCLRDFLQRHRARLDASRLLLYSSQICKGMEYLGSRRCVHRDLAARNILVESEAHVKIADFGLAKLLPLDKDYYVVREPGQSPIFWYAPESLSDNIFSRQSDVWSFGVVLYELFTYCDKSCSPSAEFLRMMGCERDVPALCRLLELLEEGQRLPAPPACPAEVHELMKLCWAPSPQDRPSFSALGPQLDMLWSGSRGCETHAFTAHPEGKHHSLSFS
Method: (§1) Test article was solubilized in dimethyl sulfoxide (DMSO) to a stock concentration of 30 mM. An 11-point half log dilution series was created in DMSO with a top concentration of 600 μM. […] Test article and assay controls were added to a 384-well plate. […] Enzyme concentrations and incubation times were optimized for each new enzyme preps and were modified slightly over time to ensure 20%-30% phosphorylation. […] The assay plates were placed on a Caliper Life Science Lab Chip 3000 (LC3000) instrument, and each well was sampled using appropriate separation conditions to measure the unphosphorylated and phosphorylated peptide.

JAK3 enzyme [2] = biological target: T1, JAK3 enzyme; test: JAK Caliper Enzyme Assay at 4 μM ATP; assay type: biochemical
Method: as §1

Row | SMILES | pIC50 (JAK3 enzyme [1]) | pIC50 (JAK3 enzyme [2])
1 | C=CC(=O)N1CCN(c2cnc3[nH]cc(C(=O)N[C@@H](C)COCc4ccccc4)c3n2)CC1(C)C [Example 134, 2-(4-acryloyl-3,3-dimethylpiperazin-1-yl)-N-[(2S)-1-(benzyloxy)propan-2-yl]-5H-pyrrolo[2,3-b]pyrazine-7-carboxamide] | 5.60 | 7.91
2 | C=CC(=O)N1CCC(Oc2cnc3[nH]cc(C(=O)NCC4(O)CCC(F)(F)CC4)c3n2)CC1 [Example 207, 2-[(1-acryloylpiperidin-4-yl)oxy]-N-[(4,4-difluoro-1-hydroxycyclohexyl)methyl]-5H-pyrrolo[2,3-b]pyrazine-7-carboxamide] | 6.27 | 8.39
3 | C=CC(=O)N1CC[C@@H](Nc2cnc3[nH]cc(C(=O)NCC)c3n2)C1 [Example 234, 2-{[(3R)-1-acryloylpyrrolidin-3-yl]amino}-N-ethyl-5H-pyrrolo[2,3-b]pyrazine-7-carboxamide] | 5.64 | 7.75
4 | C=CC(=O)N1CCC(Oc2cnc3[nH]cc(C(=O)N[C@H](C(C)C)[C@@H](O)C(F)(F)F)c3n2)CC1 [Example 202, 2-[(1-acryloylpiperidin-4-yl)oxy]-N-[(2R,3R)-1,1,1-trifluoro-2-hydroxy-4-methylpentan-3-yl]-5H-pyrrolo[2,3-b]pyrazine-7-carboxamide] | 6.16 | 8.27
5 | C=CC(=O)N1C[C@@H](C)[C@@H](Nc2cnc3[nH]cc(C(=O)NCC)c3n2)C1 (stereo in doubt) [Example 248, 2-[(1-acryloyl-4-methylpyrrolidin-3-yl)amino]-N-ethyl-5H-pyrrolo[2,3-b]pyrazine-7-carboxamide] | 5.27 | 7.31
6 | C=CC(=O)N1C[C@H](Nc2cnc3[nH]cc(C(=O)NCCOC)c3n2)C[C@@H]1COC [Example 246, 2-{[(3R,5R)-1-acryloyl-5-(methoxymethyl)pyrrolidin-3-yl]amino}-N-(2-methoxyethyl)-5H-pyrrolo[2,3-b]pyrazine-7-carboxamide] | 5.95 | 8.11
7 | C=CC(=O)N1CCN(c2cnc3[nH]cc(C(=O)N[C@@H]4COC[C@@H]4c4ccc(F)cc4)c3n2)CC1(C)C (stereo in doubt) [Example 143, 2-(4-acryloyl-3,3-dimethylpiperazin-1-yl)-N-[4-(4-fluorophenyl)tetrahydrofuran-3-yl]-5H-pyrrolo[2,3-b]pyrazine-7-carboxamide] | 5.72 | 7.65
8 | C=CC(=O)N1CCC(Oc2cnc3[nH]cc(C(C)O)c3n2)CC1 (racemic) [Example 117] | 5.83 | 7.93
9 | C=CC(=O)N1C[C@H](Nc2cnc3[nH]cc(C(=O)NCCOC)c3n2)[C@@](C)(C#N)C1 [Example 232, 2-{[(3R,4S)-1-acryloyl-4-cyano-4-methylpyrrolidin-3-yl]amino}-N-(2-methoxyethyl)-5H-pyrrolo[2,3-b]pyrazine-7-carboxamide] | 6.22 | 8.60
10 | C=CC(=O)N1CCC(Oc2cnc3[nH]cc(C(=O)NCc4ccccc4F)c3c2)CC1 [Example 346, 5-[(1-acryloylpiperidin-4-yl)oxy]-N-(2-fluorobenzyl)-1H-pyrrolo[2,3-b]pyridine-3-carboxamide] | 5.35 | 7.39
11 | C=CC(=O)N1CCN(c2cnc3[nH]cc(C(=O)N[C@@H](C)COc4ccccc4)c3n2)CC1(C)C [Example 147, 2-(4-acryloyl-3,3-dimethylpiperazin-1-yl)-N-[(2S)-1-phenoxypropan-2-yl] 5H-pyrrolo[2,3-b]pyrazine-7-carboxamide] | 5.43 | 7.38
12 | C=CC(=O)N1C[C@H](Nc2cnc3[nH]cc(C(=O)NCC)c3n2)[C@](C)(C#N)C1 [Example 251, 2-{[(3R,4R)-1-acryloyl-4-cyano-4-methylpyrrolidin-3-yl]amino}-N-ethyl-5H-pyrrolo[2,3-b]pyrazine-7-carboxamide] | 5.88 | 8.29
13 | C=CC(=O)N1CCN(c2cnc3[nH]cc(C(=O)N[C@@H]4COc5ccccc5C4)c3n2)CC1(C)C [Example 168, 2-(4-acryloyl-3,3-dimethylpiperazin-1-yl)-N-[(3S)-3,4-dihydro-2H-chromen-3-yl]-5H-pyrrolo[2,3-b]pyrazine-7-carboxamide] | 6.11 | 8.11
14 | C#CCOCCc1c[nH]c2ncnc(N[C@@H]3CC[C@H](C)N(C(=O)C=C)C3)c12 [Example 131, 1-[(2S,5R)-2-Methyl-5-({5-[2-(prop-2-yn-1-yloxy)ethyl]-7H-pyrrolo[2,3-d]pyrimidin-4-yl}amino)piperidin-1-yl]prop-2-en-1-one] | 7.48 | 9.74
15 | C=CC(=O)N1CCN(c2cnc3[nH]cc(C(=O)N[C@H](CO)CCC)c3n2)CC1(C)C [Example 161, 2-(4-acryloyl-3,3-dimethylpiperazin-1-yl)-N-[(2S)-1-hydroxypentan-2-yl] 5H-pyrrolo[2,3-b]pyrazine-7-carboxamide] | 5.95 | 8.13
16 | C=CC(=O)N1CCCC(Nc2cnc3[nH]cc(C(=O)NCC)c3n2)C1 (single isomer, unassigned) [Example 35] | 6.21 | 8.17
17 | C=CC(=O)N1CCN(c2cnc3[nH]cc(C(=O)NCC(F)(F)F)c3n2)CC1(C)C [Example 286, 2-(4-acryloyl-3,3-dimethylpiperazin-1-yl)-N-(2,2,2-trifluoroethyl)-5H-pyrrolo[2,3-b]pyrazine-7-carboxamide] | 5.99 | 7.91
18 | C=CC(=O)N1CCN(c2cnc3[nH]cc(C(=O)N[C@H](C)COCc4ccccc4)c3n2)CC1(C)C [Example 169, 2-(4-acryloyl-3,3-dimethylpiperazin-1-yl)-N-[(2R)-1-(benzyloxy)propan-2-yl]-5H-pyrrolo[2,3-b]pyrazine-7-carboxamide] | 6.07 | 8.14
19 | C=CC(=O)N1CCC(Oc2cnc3[nH]cc([C@H](C)O)c3n2)CC1 (single isomer, unassigned) [Example 118] | 5.72 | 7.79
20 | C=CC(=O)N1CCN(c2cnc3[nH]cc(C(=O)NCC4(O)CCC(F)(F)CC4)c3n2)CC1(C)C [Example 291, 2-(4-acryloyl-3,3-dimethylpiperazin-1-yl)-N-[(4,4-difluoro-1-hydroxycyclohexyl)methyl]-5H-pyrrolo[2,3-b]pyrazine-7-carboxamide] | 5.83 | 7.81
21 | C=CC(=O)N1CCN(c2cnc3[nH]cc(C(=O)NCCCC(F)(F)F)c3n2)CC1(C)C [Example 272, 2-(4-acryloyl-3,3-dimethylpiperazin-1-yl)-N-(4,4,4-trifluorobutyl)-5H-pyrrolo[2,3-b]pyrazine-7-carboxamide] | 6.19 | 8.42
22 | C=CC(=O)N1CC[C@H](N(C)c2cnc3[nH]cc(C(=O)NCC)c3n2)C1 (single isomer, unassigned) [Example 30] | 6.06 | 8.16
23 | C=CC(=O)N1CCC(Oc2cnc3[nH]cc(C(=O)NCC4(O)CCC(C)C4)c3n2)CC1 (racemic) [Example 201, Racemic-2-[(1-acryloylpiperidin-4-yl)oxy]-N-[(1-hydroxy-3-methylcyclopentyl)methyl]-5H-pyrrolo[2,3-b]pyrazine-7-carboxamide] | 6.39 | 8.44
24 | C=CC(=O)N1CCC(Nc2cnc3[nH]cc(C(=O)NCC)c3c2)CC1 [Example 352, 5-((1-acryloylpiperidin-4-yl)amino)-N-ethyl-1H-pyrrolo[2,3-b]pyridine-3-carboxamide] | 5.35 | 7.28
25 | C=CC(=O)N1CC[C@H](Nc2cnc3[nH]cc(C(=O)N[C@@H](C)COC)c3n2)[C@H](OC)C1 (single isomer, unassigned) [Example 356] | 6.08 | 8.39
26 | C=CC(=O)N1CCC(Oc2cnc3[nH]cc(C(=O)N[C@@H]4C[C@H]4C(F)(F)F)c3n2)CC1 [Example 216, 2-[(1-acryloylpiperidin-4-yl)oxy]-N-[(1R,2R)-2-(trifluoromethyl)cyclopropyl]-5H-pyrrolo[2,3-b]pyrazine-7-carboxamide] | 6.33 | 8.49
27 | C=CC(=O)N1CC[C@@H](N(C)c2cnc3[nH]cc(C(=O)NCC)c3n2)C1 (single isomer, unassigned) [Example 29] | 5.08 | –
